These are literature values, as cited in patent US20090155200A1, “Methods of promoting cartilage healing or cartilage integration” (priority 2004, published 2009).

The data set deals with articular cartilage defect. As to conditions: pre-treatment with trypsin; Chen et al. 2000.

For trypsin, the “integration and remodeling of implanted cartilage” value is “improved”.
